We go through one molecule from patent US20060264411A1, “Control of biofilm formation” (priority 2005, published 2006).

Assay [1] has as its system Clinical isolates of P. aeruginosa from cystic fibrosis patients. The assay is described as follows: Detachment of mature biofilms on peg lids, crystal violet. The class given is cell-based. The following applies: 5 ug/ml; about 40 hours; eighteen clinical isolates. On the procedure: Clinical isolates of P. aeruginosa from cystic fibrosis patients were passed twice on tryptic soy agar with 5% sheep blood after retrieval from −80° C. and then grown overnight in CAMHB. After dilution of a culture to 0.5 McFarland in broth medium, 100 μl was transferred in triplicate to wells of a flat-bottom 96-well microtiter plate. Bacterial biofilms were formed by immersing the pegs of a modified polystyrene microtiter lid into this biofilm growth plate, followed by incubation at 37° C. for 20 hours with no movement.
Peg lids were rinsed three times in sterile water, placed onto flat-bottom microtiter plates containing biofilm inhibitors at 5 ug/ml in 100 μl of CAMHB per well and incubated for approximately 40 hours at 37° C.
Pegs were rinsed, placed in a 0.1% (wt/vol) crystal violet solution for 15 min, rinsed again, and dried for several hours. To solubilize adsorbed crystal violet, pegs were incubated in 95% ethanol (150 μl per well of a flat-bottom microtiter plate) for 15 min. The absorbance was read at 590 nm on a plate reader. The wells containing asiatic acid were compared to negative controls. Negative controls were prepared as stated above but without asiatic acid.

The next assay relates to S. mutans 25175. In words: Biofilm growth inhibition in polycarbonate tubes. The assay is classed as cell-based. The following applies: Streptococcus mutans, 40 μg/mL.
Assay [2] has as its system E. coli clinical strain UTI89. In words: Invasion of E. coli UTI89 into bladder epithelial cells. The class given is cell-based. To be noted: 40 μg/ml; 60 minutes; separate experiments (n=4-7). On the procedure: The effect of test compounds on bacterial invasion of E. coli clinical strain UTI89 was studied as described in Elsinghorst, et al. 1994, Methods Enzymol, 236:405-420; and Martinez et al., 2000, EMBO J., 19:2803-2812. Epithelial bladder cells were grown in plates. Asiatic acid, corosolic acid, or ursolic acid were added at concentrations of 10 μg/ml, 20 μg/ml, or 40 μg/ml to bacteria and epithelial cells for approximately 5, 15, 30, or 60 minutes with approximately 10^7 CFU of E. coli. Binding was assessed at time zero and invasion was assessed at approximately 5, 15, 30, or 60 minutes from completing the mixture of compound, bacteria, and epithelial cells. As a control ethanol was added to cells to a final concentration of 0.1%. The effect of bacterial viability and bacterial adherence during the infection period was evaluated according to the methods described in Martinez et al., 2000, EMBO J., 19:2803-2812.

A further assay deals with bacterial invasion. The assay is described as follows: Bacterial invasion statement of Example 9. To be noted: within 15 minutes of administration.
For the next assay, the system named is E. coli UTI89[pCOMGFP]. The assay is described as follows: Biofilm pods / intracellular bacterial communities (IBC) in mouse bladders, confocal microscopy. The class given is in vivo, C3H/HeN mice. On the procedure: The experiment was performed using the procedures described in Justice, S. et al., Differentiation and development pathways of uropathogenic Escherichia coli in urinary tract pathogenesis.PNAS, 2004, 101(5), p. 1333-1338. Briefly, E. coli UTI89[pCOMGFP] was prepared after retrieval from frozen stocks by inoculating in LB medium statically for approximately 20 hours. Cells were harvested and suspended in 1 ml of PBS. Cells were diluted to achieve approximately a 10^8 CFU or 10^7 CFU input into C3H/HeN mice (2 mice per group).
Mice were deprived of water for approximately two hours. In experiment 1, all mice were anesthetized with 0.15 cc ketamine cocktail. In experiment 2, all mice were anesthetized with isofluorane. In experiment 1, urine was dispelled from the bladders and approximately 40 μg/ml of test compound or an appropriate amount of ethanol as control was introduced into the bladders via catheterization of the urethra using a tubing coated tuberculin syringe. 30 minutes was allowed to elapse. In experiment 2, bladders were not pre-incubated with test compounds. Bladders were then expelled and an inoculum of 10^8 CFU (Experiment 1) or 10^7 CFU (Experiment 2) of E. coli containing 40 μg/ml of test compound or equivalent amount of ethanol as controls were introduced into the bladders as indicated above.
In experiment 1 five hours elapsed and in experiment 2 six hours elapsed, and then mice were anesthetized and sacrificed. The bladders were removed, bisected, stretched, and fixed in 3% paraformaldehyde for 1 hour at room temperature. Bladders were then permeabilized in 0.01% Triton/PBS for 10 minutes and counter stained with TOPRO3 (Molecular Probes) for 10 minutes for visualization by confocal microscopy. Bladders were mounted on Prolong antifade (Molecular Probes).

What is called inhibition is the relative decrease from the control value, in per cent. Higher therefore signals a strong effect. In the case of `C[C@H]1[C@H](C)CC[C@]2(C(=O)O)CC[C@]3(C)C(=CC[C@@H]4[C@@]5(C)C[C@@H](O)[C@H](O)[C@@](C)(CO)[C@@H]5CC[C@]43C)[C@H]12` [Asiatic acid, asiatic acid], the “average detachment of mature biofilms compared to negative controls” value in assay [1] was “approximately 50%”. For the same molecule, the inhibition at 40 µg/mL in the assay with S. mutans 25175 is greater than 75%. Besides, the “reduced invasion of E. coli into bladder epithelial cells as compared to the controls” value in assay [2] was determined as 87%. The “bacterial invasion (in words)” value in the assay on bacterial invasion is given as “significantly reduced bacterial invasion”. Besides, the “reduction in biofilm pods or intracellular bacterial communities (IBC) in the bladders of mice as compared to the controls” value with E. coli UTI89[pCOMGFP] (experiment 1: 40 μg/ml intravesical, 30 min pre-incubation, 10^8 CFU, five hours) worked out at 77%. The “reduction in large biofilm pods or large IBC in the bladders of mice as compared to the controls” value with E. coli UTI89[pCOMGFP] (experiment 2: 40 μg/ml with inoculum, no pre-incubation, 10^7 CFU, six hours) was roughly 60%.
